The text below walks through data of patent US20250388574A1, “HETEROCYCLIC COMPOUNDS AS TRIGGERING RECEPTOR EXPRESSED ON MYELOID CELLS 2 AGONISTS AND METHODS OF USE” (AMGEN INC., priority 2020, published 2025).

pEC50: −log10 of the molar value. Some results are limits rather than exact numbers.

In the test the target is hTREM2 (Homo sapiens, UniProt Q9NZC2). The test can be described thus: Phospho-Syk AlphaScreen/AlphaLISA assay in TREM2 and DAP12 overexpressing HEK293 cells (Example A1). Type of test: cell-based. More on the design: expressed in transfected cells. To be noted: HEK293 cells; for pEC50: read-out: hTREM2 EC50. The essentials: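 Agonism read as Syk phosphorylation: compounds in 1% DMSO applied 45 min at room temperature to TREM2/DAP12-HEK293 cells after 20 h culture. Lysis buffer with phosphatase inhibitors and anti-phospho-Syk plus biotinylated anti-Syk antibodies, then AlphaLISA beads (680 nm excitation); percent of control computed from antibody/isotype wells, curves fitted sigmoidally.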
Chain of hTREM2 (Q9NZC2 19-230): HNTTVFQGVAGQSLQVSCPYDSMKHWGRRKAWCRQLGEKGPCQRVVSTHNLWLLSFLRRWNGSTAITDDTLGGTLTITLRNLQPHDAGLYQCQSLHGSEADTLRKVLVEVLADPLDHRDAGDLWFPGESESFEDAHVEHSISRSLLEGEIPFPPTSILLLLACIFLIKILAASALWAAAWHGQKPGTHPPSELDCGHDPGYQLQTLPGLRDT
Chain of hTREM2 (O43914 22-113 partner): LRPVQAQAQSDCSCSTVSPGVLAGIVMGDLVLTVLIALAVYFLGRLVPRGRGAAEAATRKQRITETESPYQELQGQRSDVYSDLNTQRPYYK
For orientation: Bead proximity is the source of the signal in Alpha formats.

`Cc1nc2cc(N3CCOC(c4ccnn4C)C3)nc(-c3ccc(Cl)cc3F)c2c(=O)n1C` (stereo not shown) [Example 52, 5-(4-chloro-2-fluorophenyl)-2,3-dimethyl-7-(2-(1-methyl-1H-pyrazol-5-yl)-4-morpholinyl)pyrido[4,3-d]pyrimidin-4(3H)-one]: the Emax entry is “++++ (Emax>300)” and the negative logarithm of the EC50 (pEC50) (in general, −log10 of the EC50, conventionally taken in molar units) was 5.52 to 6.30.
For `Cc1nc2cc(N3CCOC(CC(F)(F)F)C3)nc(-c3ccc(Cl)cc3F)c2c(=O)n1C` (stereo not shown) [Example 53, 5-(4-chloro-2-fluorophenyl)-2,3-dimethyl-7-(2-(2,2,2-trifluoroethyl)-4-morpholinyl)pyrido[4,3-d]pyrimidin-4(3H)-one] the same measures were “++++ (Emax>300)” and 5.52 to 6.30.
For `Cc1ccc(C2CN(c3cc4nc(C)n(C)c(=O)c4c(-c4ccc(Cl)cc4F)n3)CCO2)cn1` (stereo not shown) [Example 60, 5-(4-chloro-2-fluorophenyl)-2,3-dimethyl-7-(2-(6-methyl-3-pyridinyl)-4-morpholinyl)pyrido[4,3-d]pyrimidin-4(3H)-one] the same measures were “++++ (Emax>300)” and 6.30 to 7.30.
As for `Cc1cc([C@H]2CN(c3cc4nc(C)n(C)c(=O)c4c(-c4ccc(Cl)cc4F)n3)CCO2)ccn1` [Example 61, 5-(4-chloro-2-fluorophenyl)-2,3-dimethyl-7-((2S)-2-(2-methyl-4-pyridinyl)-4-morpholinyl)pyrido[4,3-d]pyrimidin-4(3H)-one], the Emax result is “+++ (Emax>200 and ≤300)”; the negative logarithm of the EC50 (pEC50) is more than 7.30.
On to `Cc1cc([C@@H]2CN(c3cc4nc(C)n(C)c(=O)c4c(-c4ccc(Cl)cc4F)n3)CCO2)ccn1` [Example 62, 5-(4-chloro-2-fluorophenyl)-2,3-dimethyl-7-((2R)-2-(2-methyl-4-pyridinyl)-4-morpholinyl)pyrido[4,3-d]pyrimidin-4(3H)-one], for which the Emax result is “+++ (Emax>200 and ≤300)”; the pEC50 is 6.30 to 7.30.
On to `Cc1nccc(C2CN(c3cc4nc(C)n(C)c(=O)c4c(-c4ccc(Cl)cc4F)n3)CCO2)n1` (stereo not shown) [Example 63, 5-(4-chloro-2-fluorophenyl)-2,3-dimethyl-7-(2-(2-methyl-4-pyrimidinyl)-4-morpholinyl)pyrido[4,3-d]pyrimidin-4(3H)-one], for which the Emax entry is on record as “++++ (Emax>300)” and the pEC50 was 5.52 to 6.30.
For `Cc1nn(C)cc1C1CN(c2cc3nc(C)n(C)c(=O)c3c(-c3ccc(Cl)cc3F)n2)CCO1` (stereo not shown) [Example 68, 5-(4-chloro-2-fluorophenyl)-7-(2-(1,3-dimethyl-1H-pyrazol-4-yl)-4-morpholinyl)-2,3-dimethylpyrido[4,3-d]pyrimidin-4(3H)-one], the Emax result was “+++ (Emax>200 and ≤300)”; the pEC50 is 6.30 to 7.30.
Turning to `Cc1nc2cc(N3CCOC(c4cncc(F)c4)C3)nc(-c3ccc(Cl)cc3F)c2c(=O)n1C` (stereo not shown) [Example 69, 5-(4-chloro-2-fluorophenyl)-7-(2-(5-fluoro-3-pyridinyl)-4-morpholinyl)-2,3-dimethylpyrido[4,3-d]pyrimidin-4(3H)-one], the Emax result is “++++ (Emax>300)” and the pEC50 is 6.30 to 7.30.
For `CCc1nnc(C2CN(c3cc4nc(C)n(C)c(=O)c4c(-c4ccc(Cl)cc4F)n3)CCO2)o1` (stereo not shown) [Example 70, 5-(4-chloro-2-fluorophenyl)-7-(2-(5-ethyl-1,3,4-oxadiazol-2-yl)-4-morpholinyl)-2,3-dimethylpyrido[4,3-d]pyrimidin-4(3H)-one] the same measures were “++++ (Emax>300)” and 6.30 to 7.30.
Taken in the same sequence, the figures for `Cc1csc(C2CN(c3cc4nc(C)n(C)c(=O)c4c(-c4ccc(Cl)cc4F)n3)CCO2)n1` (stereo not shown) [Example 75, 5-(4-chloro-2-fluorophenyl)-2,3-dimethyl-7-(2-(4-methyl-1,3-thiazol-2-yl)-4-morpholinyl)pyrido[4,3-d]pyrimidin-4(3H)-one] were “++++ (Emax>300)” and 6.30 to 7.30.
Taken in the same sequence, the figures for `Cc1nc2cc(N3CCOC(c4ccc(C#N)cc4)C3)nc(-c3ccc(Cl)cc3F)c2c(=O)n1C` (stereo not shown) [Example 90, 4-(4-(5-(4-chloro-2-fluorophenyl)-2,3-dimethyl-4-oxo-3,4-dihydropyrido [4,3-d]pyrimidin-7-yl)-2-morpholinyl)benzonitrile] were “++++ (Emax>300)” and 6.30 to 7.30.
In the case of `Cc1nc2cc(N3CCOC(c4noc(-c5ccccc5)n4)C3)nc(-c3ccc(Cl)cc3F)c2c(=O)n1C` (stereo not shown) [Example 93, 5-(4-chloro-2-fluorophenyl)-2,3-dimethyl-7-(2-(5-phenyl-1,2,4-oxadiazol-3-yl)-4-morpholinyl)pyrido[4,3-d]pyrimidin-4(3H)-one], the Emax result is “+++ (Emax>200 and ≤300)”; the negative logarithm of the EC50 (pEC50) was 5.52 to 6.30.
With `Cc1nc2cc(N3CCOC(c4ccnc(C(F)(F)F)c4)C3)nc(-c3ccc(Cl)cc3F)c2c(=O)n1C` (stereo not shown) [Example 94, 5-(4-chloro-2-fluorophenyl)-2,3-dimethyl-7-(2-(2-(trifluoromethyl)-4-pyridinyl)-4-morpholinyl)pyrido[4,3-d]pyrimidin-4(3H)-one], the Emax entry is “+++ (Emax>200 and ≤300)”; the negative-log EC50 (pEC50) is more than 7.30.
Regarding `Cc1nc2cc(N3CCc4cnccc4C3)nc(-c3ccc(Cl)cc3F)c2c(=O)n1C` [Example 101, 5-(4-chloro-2-fluorophenyl)-7-(3,4-dihydro-2,6-naphthyridin-2(1H)-yl)-2,3-dimethylpyrido[4,3-d]pyrimidin-4(3H)-one], the Emax entry was “+++ (Emax>200 and ≤300)”; the pEC50 was 5.52 to 6.30.
`Cc1nc2cc(N3CCc4ccncc4C3)nc(-c3ccc(Cl)cc3F)c2c(=O)n1C` [Example 102, 5-(4-chloro-2-fluorophenyl)-7-(3,4-dihydro-2,7-naphthyridin-2(1H)-yl)-2,3-dimethylpyrido[4,3-d]pyrimidin-4(3H)-one]: the Emax result is “+++ (Emax>200 and ≤300)”; the pEC50 is 6.30 to 7.30.
Take `Cc1nc2cc(N3CCCC(C)(c4ccccc4)C3)nc(-c3ccc(Cl)cc3F)c2c(=O)n1C` (stereo not shown) [Example 103, 5-(4-chloro-2-fluorophenyl)-2,3-dimethyl-7-(3-methyl-3-phenyl-1-piperidinyl)pyrido[4,3-d]pyrimidin-4(3H)-one]: the Emax entry was “+ (Emax>45 and ≤100)”; the pEC50 was 4.00 to 5.52.
`Cc1nc2cc(N3CCc4cnn(C)c4C3)nc(-c3ccc(Cl)cc3F)c2c(=O)n1C` [Example 104, 5-(4-chloro-2-fluorophenyl)-2,3-dimethyl-7-(1-methyl-1,4,5,7-tetrahydro-6H-pyrazolo[3,4-c]pyridin-6-yl)pyrido[4,3-d]pyrimidin-4(3H)-one]: the Emax entry is “++++ (Emax>300)” and the negative logarithm of the EC50 (pEC50) was 6.30 to 7.30.
Taken in the same sequence, the figures for `Cc1nc2cc(N3CCCC(c4cnco4)C3)nc(-c3ccc(Cl)cc3F)c2c(=O)n1C` (stereo not shown) [Example 105, 5-(4-chloro-2-fluorophenyl)-2,3-dimethyl-7-(3-(1,3-oxazol-5-yl)-1-piperidinyl)pyrido[4,3-d]pyrimidin-4(3H)-one] were “++++ (Emax>300)” and 6.30 to 7.30.
On to `Cc1nc2cc(N3CCCC(C4CNC(=O)C4)C3)nc(-c3ccc(Cl)cc3F)c2c(=O)n1C` (stereo not shown) [Example 106, 5-(4-chloro-2-fluorophenyl)-2,3-dimethyl-7-(3-(5-oxo-3-pyrrolidinyl)-1-piperidinyl)-pyrido[4,3-d]pyrimidin-4(3H)-one], for which the Emax entry is “+++ (Emax>200 and ≤300)”; the negative-log EC50 (pEC50) was 6.30 to 7.30.
For `Cc1nc2cc(N3CCCC(N(C)C)C3)nc(-c3ccc(Cl)cc3F)c2c(=O)n1C` (stereo not shown) [Example 109, 5-(4-chloro-2-fluoro-phenyl)-7-(3-(dimethylamino)-1-piperidinyl)-2,3-dimethylpyrido[4,3-d]pyrimidin-4(3H)-one], the Emax result is “++++ (Emax>300)” and the pEC50 was 5.52 to 6.30.
For `Cc1nc2cc(N3CCCC(N4CCC4)C3)nc(-c3ccc(Cl)cc3F)c2c(=O)n1C` (stereo not shown) [Example 110, 7-(3-(1-azetidinyl)-1-piperidinyl)-5-(4-chloro-2-fluorophenyl)-2,3-dimethylpyrido[4,3-d]pyrimidin-4(3H)-one] the same measures were “++++ (Emax>300)” and 5.52 to 6.30.
Consider `Cc1nc2cc(N3CCc4ccnc(Cl)c4C3)nc(-c3ccc(Cl)cc3F)c2c(=O)n1C` [Example 115, 7-(8-chloro-3,4-dihydro-2,7-naphthyridin-2(1H)-yl)-5-(4-chloro-2-fluorophenyl)-2,3-dimethylpyrido[4,3-d]pyrimidin-4(3H)-one], for which the Emax entry was “+++ (Emax>200 and ≤300)”; the negative-log EC50 (pEC50) was 6.30 to 7.30.
Take `COc1ncnc2c1CN(c1cc3nc(C)n(C)c(=O)c3c(-c3ccc(Cl)cc3F)n1)CC2` [Example 116, 5′-(4-chloro-2-fluorophenyl)-4-methoxy-2′,3′-dimethyl-7,8-dihydro-5H-[6,7′-bipyrido[4,3-d]pyrimidin]-4′(3′H)-one]: the Emax entry is “++ (Emax>100 and ≤200)”; the negative logarithm of the EC50 (pEC50) is 6.30 to 7.30.
With `Cc1nc2cc(N3CCC(C(F)(F)F)C3)nc(-c3ccc(Cl)cc3F)c2c(=O)n1C` (stereo not shown) [Example 119, 5-(4-chloro-2-fluorophenyl)-2,3-dimethyl-7-(3-(trifluoromethyl)-1-pyrrolidinyl)pyrido[4,3-d]pyrimidin-4(3H)-one], the Emax result was “+++ (Emax>200 and ≤300)”; the pEC50 is 6.30 to 7.30.
`Cc1nc2cc(N3CCC(C(F)F)C3)nc(-c3ccc(Cl)cc3F)c2c(=O)n1C` (stereo not shown) [Example 120, 5-(4-chloro-2-fluorophenyl)-7-(3-(difluoromethyl)-1-pyrrolidin-yl)-2,3-dimethylpyrido[4,3-d]pyrimidin-4(3H)-one]: the Emax result was “+++ (Emax>200 and ≤300)”; the pEC50 was 6.30 to 7.30.
On to `Cc1nc2cc(N3CCC(c4cccnc4)C3)nc(-c3ccc(Cl)cc3F)c2c(=O)n1C` (stereo not shown) [Example 121, 5-(4-chloro-2-fluorophenyl)-2,3-dimethyl-7-(3-(3-pyridinyl)-1-pyrrolidinyl)pyrido[4,3-d]pyrimidin-4(3H)-one], for which the Emax result is “++++ (Emax>300)” and the negative-log EC50 (pEC50) was 6.30 to 7.30.
